# Laboratory results from patent US20090143279A1 (priority 2007, published 2009).
# Like-named read-outs stand apart in the source and are kept apart here.
# How the values were obtained:
# mtOXPHOS transcripts = assay type: cell-based, mouse; conditions: for mitoOX (composite Z-score): normalized score vs mock-treated (DMSO) wells
# cytochrome c = assay type: cell-based, mouse; conditions: for cyt c (composite Z-score): normalized score vs mock-treated (DMSO) wells
# C2C12 myotubes = conditions: for Viability (composite Z-score): normalized score vs mock-treated (DMSO) wells
# nuOXPHOS transcripts = assay type: cell-based, mouse; conditions: for nucOX (composite Z-score): normalized score vs mock-treated (DMSO) wells
# [1] = tested on: mitochondrial membrane potential; assay type: cell-based, mouse; conditions: for ΔΨm (composite Z-score): normalized score vs mock-treated (DMSO) wells
# [2] = tested on: cellular dehydrogenase activity; conditions: for MTT (composite Z-score): normalized score vs mock-treated (DMSO) wells
# OXPHOS gene expression = assay type: cell-based, mouse; conditions: for GE-HTS (composite Z-score): normalized score vs mock-treated (DMSO) wells
# reactive oxygen species = assay type: cell-based, mouse; conditions: for ROS (composite Z-score): normalized score vs mock-treated (DMSO) wells
# [3] = composite Z-score vs DMSO, Conc 20 μM
# [4] = Table 7, C2C12 myotubes, 48 h, composite Z-score
# [5] = composite Z-score vs mock-treated (DMSO) wells, Conc 20 μM
# [6] = composite Z-score vs mock-treated (DMSO) wells, concentration of each compound in μM
# [7] = normalized composite Z-score vs mock-treated (DMSO) wells, Conc 20 μM
# [8] = composite Z-score vs DMSO wells, Conc 20 μM
smiles,measurement,setting,value
"COc1cc2c(cc1OC)[C@@H]1C(=O)c3ccc4c(c3O[C@@H]1CO2)CC(C(C)C)O4 (stereo partly shown) [dihydrorotenone, reference compound]",mitoOX,mtOXPHOS transcripts; [3],−1.732
same,cyt c,cytochrome c; [3],−3.153
same,Viability,C2C12 myotubes; [3],0.390
same,nucOX,nuOXPHOS transcripts; [3],−2.212
same,ΔΨm,[1]; [3],−0.314
same,MTT,[2]; [3],−4.020
same,GE-HTS,OXPHOS gene expression; [3],−2.179
same,ROS,reactive oxygen species; [3],−0.682
"CC(=O)O[C@@H]1c2c(ccc3ccc(=O)oc23)OC(C)(C)[C@@H]1OC(=O)CC(C)C [dihydrosamidin, reference compound]",mitoOX (composite Z-score),mtOXPHOS transcripts; Conc 20 μM,1.477
same,mito-OXPHOS Z,mtOXPHOS transcripts; [4],1.48
same,cyt c (composite Z-score),cytochrome c; Conc 20 μM,0.147
same,Viability (composite Z-score),C2C12 myotubes; Conc 20 μM,0.476
same,nucOX (composite Z-score),nuOXPHOS transcripts; Conc 20 μM,1.843
same,nucOXPHOS Z,nuOXPHOS transcripts; [4],1.84
same,ΔΨm (composite Z-score),[1]; Conc 20 μM,0.199
same,MTT (composite Z-score),[2]; Conc 20 μM,−0.826
same,GE-HTS (composite Z-score),OXPHOS gene expression; Conc 20 μM,1.854
same,ROS (composite Z-score),reactive oxygen species; Conc 20 μM,4.794
Cc1cc(=O)c2c(O)c3c(cc2o1)OC(C)(C)CC3 [dihydrospatheliachromene],mitoOX,mtOXPHOS transcripts; [5],−0.569
same,cyt c,cytochrome c; [5],0.068
same,Viability,C2C12 myotubes; [5],−0.538
same,nucOX,nuOXPHOS transcripts; [5],−0.620
same,ΔΨm,[1]; [5],−0.174
same,MTT,[2]; [5],−1.802
same,GE-HTS,OXPHOS gene expression; [5],−0.666
same,ROS,reactive oxygen species; [5],1.483
"CC(=O)[C@H]1CC[C@H]2[C@@H]3CCC4C[C@H](O)CC[C@]4(C)[C@H]3C[C@H](O)[C@]12C (stereo partly drawn) [dihydroxy (3alpha,12alpha)pregnan-20-one]",mitoOX,mtOXPHOS transcripts; [5],−0.621
same,cyt c,cytochrome c; [5],−0.685
same,Viability,C2C12 myotubes; [5],−0.622
same,nucOX,nuOXPHOS transcripts; [5],−0.972
same,ΔΨm,[1]; [5],−0.540
same,MTT,[2]; [5],−1.160
same,GE-HTS,OXPHOS gene expression; [5],−0.928
same,ROS,reactive oxygen species; [5],0.206
COc1ccc(/C=C/C(=O)O)cc1OC [dimethylcaffeic acid],mitoOX (composite Z-score),mtOXPHOS transcripts; Conc 20 μM,−0.885
same,cyt c (composite Z-score),cytochrome c; Conc 20 μM,0.804
same,Viability (composite Z-score),C2C12 myotubes; Conc 20 μM,0.147
same,nucOX (composite Z-score),nuOXPHOS transcripts; Conc 20 μM,−0.838
same,ΔΨm (composite Z-score),[1]; Conc 20 μM,−0.061
same,MTT (composite Z-score),[2]; Conc 20 μM,−1.206
same,GE-HTS (composite Z-score),OXPHOS gene expression; Conc 20 μM,−0.924
same,ROS (composite Z-score),reactive oxygen species; Conc 20 μM,−0.142
COc1ccc(-c2cc(=O)c3c(OC)cc(OC)c(-c4cc(-c5cc(=O)c6c(OC)cc(OC)cc6o5)ccc4OC)c3o2)cc1 [dioonflavone],mitoOX,mtOXPHOS transcripts; [6],−0.969
same,cyt c,cytochrome c; [6],0.605
same,Viability,C2C12 myotubes; [6],−0.003
same,nucOX,nuOXPHOS transcripts; [6],−0.204
same,ΔΨm,[1]; [6],0.208
same,MTT,[2]; [6],−0.744
same,GE-HTS,OXPHOS gene expression; [6],−0.471
same,ROS,reactive oxygen species; [6],0.650
C[C@@H]1CC[C@@]2(OC1)O[C@H]1C[C@H]3[C@@H]4CC=C5C[C@@H](O)CC[C@]5(C)[C@H]4CC[C@]3(C)[C@H]1[C@@H]2C [diosgenin],mitoOX,mtOXPHOS transcripts; [3],0.146
same,cyt c,cytochrome c; [3],−0.679
same,Viability,C2C12 myotubes; [3],−0.044
same,nucOX,nuOXPHOS transcripts; [3],−0.445
same,ΔΨm,[1]; [3],−0.353
same,MTT,[2]; [3],−1.597
same,GE-HTS,OXPHOS gene expression; [3],−0.245
same,ROS,reactive oxygen species; [3],0.048
COc1ccc(-c2cc(=O)c3c(O)cc(O)cc3o2)cc1O [diosmetin],mitoOX,mtOXPHOS transcripts; [7],−0.134
same,cyt c,cytochrome c; [7],−0.666
same,Viability,C2C12 myotubes; [7],0.174
same,nucOX,nuOXPHOS transcripts; [7],−1.158
same,ΔΨm,[1]; [7],−2.701
same,MTT,[2]; [7],−1.922
same,GE-HTS,OXPHOS gene expression; [7],−0.892
same,ROS,reactive oxygen species; [7],−0.014
COc1ccc(-c2cc(=O)c3c(O)cc(O[C@@H]4O[C@H](CO[C@@H]5O[C@@H](C)[C@H](O)[C@@H](O)[C@H]5O)[C@@H](O)[C@H](O)[C@H]4O)cc3o2)cc1O [diosmin],mitoOX,mtOXPHOS transcripts; [8],−1.147
same,cyt c,cytochrome c; [8],−0.433
same,Viability,C2C12 myotubes; [8],−0.712
same,nucOX,nuOXPHOS transcripts; [8],−1.150
same,ΔΨm,[1]; [8],−0.501
same,MTT,[2]; [8],−0.708
same,GE-HTS,OXPHOS gene expression; [8],−1.223
same,ROS,reactive oxygen species; [8],0.321
CC(=O)Oc1ccccc1C(=O)Oc1ccccc1C(=O)O [diplosalsalate],mitoOX (composite Z-score),mtOXPHOS transcripts; Conc 20 μM,−0.766
same,cyt c (composite Z-score),cytochrome c; Conc 20 μM,0.787
same,Viability (composite Z-score),C2C12 myotubes; Conc 20 μM,−0.204
same,nucOX (composite Z-score),nuOXPHOS transcripts; Conc 20 μM,−0.994
same,ΔΨm (composite Z-score),[1]; Conc 20 μM,0.008
same,MTT (composite Z-score),[2]; Conc 20 μM,−0.860
same,GE-HTS (composite Z-score),OXPHOS gene expression; Conc 20 μM,−1.001
same,ROS (composite Z-score),reactive oxygen species; Conc 20 μM,0.306
